# Data: USRE47078E1, “Polymorphic forms of N-[4-(trifluoromethyl)benzyl]-4-methoxybutyramide” (Laboratorio Farmaceutico C.T. S.R.L., priority 2007, dated 2018)
# Legend:
# [1] = tested on: Sardinian Alcohol preferring rats (sP); assay: Spontaneous alcohol intake in non deprived sP rats; format: in vivo, rat
# Protocol: (§1) Tests were carried out in Sardinian Alcohol preferring rats (sP), i.e. a rodent line genetically selected for their spontaneous alcohol consume. These animals were adopted as the main specific animal model in the research program due to the fact that these rats (kept in a free-choice regimen between water and a 10% ethanol solution) consume large amounts of alcohol (6-7 g/Kg/day), sharing a great preference for […] (80-100%).
# (§2) Under the standard, these rats are subjected to homecage two-bottle free choice regimen between 10% alcohol and water with unlimited access (24 h/day) and they show these features: daily intake of about 6 g/Kg of alcohol; preference ratio (alcohol solution vs total fluids) above 80%; fractioning of daily alcohol intake in 3-4 binges; achievement of BALs (Blood Alcohol Levels) above 50 mg % at each binge; induction of pharmaceutical effects (anxiolysis, motor stimulation) and regulation by a central, hedonic set-point mechanism.
# 1. Spontaneous Alcohol Intake in Non Deprived sP Rats
# According to this model, the alcohol intake in a two bottles free-choice regimen represents the “active drinking” phase of human alcoholism. Therefore the tested active compounds should decrease the propension of rats to consume alcohol. […] In FIG. 8A the results of a single experiment are shown. Specifically 10, 20, 25 and 50 mg/kg doses of polymorphic Form A were administered and the alcohol intake was evaluated.
# [2] = tested on: Sardinian Alcohol preferring rats (sP); assay: Alcohol Deprivation Effect in deprived sP rats; format: in vivo, rat
# Protocol: as §1, §2
# 2. Alcohol Deprivation Effect in Deprived sP Rats
# To further characterize the anti-alcohol effect of polymorphic Form A, this compound was evaluated on the Alcohol Deprivation Effect (ADE). […] Intake was measured 1 hour after lights off.
# rats [3] = assay: Irwin's test and body temperature in rats; format: in vivo, rat
# Protocol: (§3) The possible adverse effects of polymorphic Form A on the CNS, cardiovascular, respiratory and immune functions were evaluated in vitro and in vivo (rats and dogs) in different experimental models. In the in vivo tests, the tested compound was always given by single oral administration at the doses of 100, 300 and 1000 mg/kg.
# Neurobehavioural effects of polymorphic Form A have been investigated according to the Irwin Test by using a standard observation battery, which allows the assessment of both peripheral and central nervous system activities (e.g. motor activity, motor co-ordination, somatic sensory/motor reflex responses, autonomic responses); body temperature was measured by means of an electronic thermometer.
# rats [4] = assay: Hexobarbital sleeping time in rats; format: in vivo, rat
# Protocol: as §3
# The test consists in the measurement of the duration of hexobarbital-induced sleep; substances with a sedative or antisleep action cause increase or decrease respectively in the duration of hexobarbital induced sleep.
# rats [5] = assay: Proconvulsant activity in rats (pentylenetetrazol); format: in vivo, rat; details: with pentylenetetrazol
# Protocol: as §3
# HERG tail current = target: T1, HERG tail current (Homo sapiens, UniProt Q12809); assay: HERG tail current, patch clamp in HEK-293 cells; format: cell-based
# T1 construct: expressed in transfected cells; host or cells: HEK-293
# T1 sequence (Q12809 whole entry): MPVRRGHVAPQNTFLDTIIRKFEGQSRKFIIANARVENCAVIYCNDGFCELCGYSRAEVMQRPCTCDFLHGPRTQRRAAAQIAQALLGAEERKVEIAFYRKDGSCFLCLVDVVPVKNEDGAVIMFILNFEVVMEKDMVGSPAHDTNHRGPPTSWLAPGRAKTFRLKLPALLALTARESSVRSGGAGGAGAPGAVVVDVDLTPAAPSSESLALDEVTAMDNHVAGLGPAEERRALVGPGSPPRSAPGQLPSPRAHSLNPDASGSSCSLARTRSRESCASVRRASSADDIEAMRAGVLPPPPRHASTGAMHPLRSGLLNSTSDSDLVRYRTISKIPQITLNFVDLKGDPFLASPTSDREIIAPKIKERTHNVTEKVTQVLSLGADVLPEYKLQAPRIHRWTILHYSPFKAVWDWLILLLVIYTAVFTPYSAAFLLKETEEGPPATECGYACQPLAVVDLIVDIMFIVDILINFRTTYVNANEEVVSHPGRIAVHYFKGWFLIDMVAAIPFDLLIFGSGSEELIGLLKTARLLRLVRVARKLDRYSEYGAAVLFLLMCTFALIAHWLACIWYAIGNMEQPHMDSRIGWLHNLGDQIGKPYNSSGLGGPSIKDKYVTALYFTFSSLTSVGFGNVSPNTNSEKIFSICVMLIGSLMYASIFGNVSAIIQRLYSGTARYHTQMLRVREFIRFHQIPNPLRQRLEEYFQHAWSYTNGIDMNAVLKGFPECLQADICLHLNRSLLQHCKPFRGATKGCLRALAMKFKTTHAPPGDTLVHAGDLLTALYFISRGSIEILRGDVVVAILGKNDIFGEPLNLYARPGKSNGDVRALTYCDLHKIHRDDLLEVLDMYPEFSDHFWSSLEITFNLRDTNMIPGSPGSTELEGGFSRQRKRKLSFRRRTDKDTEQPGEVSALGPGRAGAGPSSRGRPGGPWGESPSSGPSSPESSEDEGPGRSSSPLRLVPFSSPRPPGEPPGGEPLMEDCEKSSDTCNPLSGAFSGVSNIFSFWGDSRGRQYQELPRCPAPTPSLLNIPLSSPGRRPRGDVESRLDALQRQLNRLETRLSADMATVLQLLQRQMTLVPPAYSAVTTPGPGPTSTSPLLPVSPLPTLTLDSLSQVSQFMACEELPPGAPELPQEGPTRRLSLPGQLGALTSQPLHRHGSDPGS
# Text: A possible blocking effect of polymorphic Form A on Herg tail current recorded from HEK-293 cells (Human Embryonic Kidney cells) stably transfected with HERGG-1 cDNA was investigated. The method consisted in measuring the HERG tail current by using the patch clamp techniques in the whole cell configuration. Compounds which inhibited HERG current were recognized to prolong the cardiac action potential and increase QT interval.
# [6] = tested on: isolated canine Purkinje fibres; assay: Cardiac action potential in isolated canine Purkinje fibres
# Protocol: A possible adverse effect induced by polymorphic Form A on cardiac action potential was evaluated in isolated canine Purkinje fibres. Transmembrane action potential was measured by means of the intracellular microelectrode technique; this method is recommended to detect the capacity of a substance to induce prolongation of the QT interval.
# conscious dogs = assay: Cardiovascular evaluation in conscious dogs (telemetry); format: in vivo, dog
# Protocol: as §3
# Any possible effect of polymorphic Form A administered at the doses of 100, 300 and 1000 mg/kg by oral route on blood pressure, heart rate and electrocardiogram was evaluated in conscious dogs, free to move about, previously instrumented with telemetric transmitters. In the first part of the study, only telemetric measurements were recorded; the recording of the parameters started at least 24 hours before the administration of the compound and were continued for 24 hours following dosing. In the second part, only the highest dose of 1000 mg/kg was administered and complementary investigations such as 6-lead electrocardiogram (leads I, II, III, aVL, aVR and aVF), blood sampling and observation of the animals were performed before treatment and 3 hours post-treatment.
# conscious rats = assay: Respiratory evaluation in conscious rats (whole body plethysmography); format: in vivo, rat
# Protocol: as §3
# The effect of polymorphic Form A on respiratory parameters (respiratory rate, peak inspiratory and peak expiratory flows, inspiration and expiration times, airway resistance index, minute volume and tidal volume) was assessed in conscious rats after single oral administration. Respiration was measured by the whole body plethysmography method.
# Acute toxicity in mouse = details: in vivo, single
# Protocol: (§4) Single and repeated-dose toxicity studies in rodents and non-rodents were carried out to support the clinical trials of the test compound, i.e. polymorphic Form A. Single toxicity studies were performed in mice and rats by the intraperitoneal and the oral routes. Repeated oral studies (28 days administration followed by 14 days recovery period) were performed in rats and dogs.
# Acute toxicity in rat = details: in vivo, single
# Protocol: as §4
smiles,measurement,setting,value
"COCCCC(=O)NCc1ccc(C(F)(F)F)cc1 [Polymorphic Form A, N-[4-(trifluoromethyl)benzyl]-4-methoxybutyramide]",Alcohol intake,"[1]; 10 mg/kg, single experiment of FIG. 8A",significantly reduced alcohol intake
same,Alcohol intake,"[1]; 10-100 mg/kg, intragastric acute administration",decreases the alcohol intake
same,Food intake,"[1]; sP rats, data not reported",normal food intake
same,Water intake,"[1]; sP rats, data not reported",compensatory increase of water intake
same,Extra-consume of alcohol (ADE),[2]; 5 mg/Kg,completely abolish the extra-consume of alcohol
same,Alcohol Deprivation Effect (ADE),"[2]; dose range 5-100 mg/Kg, given 30 min before lights off, intake 1 hour after lights off",completely suppressed ADE effect
same,Body temperature,rats [3]; 100 mg/kg single oral,not affected
same,Spontaneous locomotor activity (Irwin test),rats [3]; 100 mg/kg single oral,transient decrease in spontaneous locomotor activity
same,Posture / neurobehavioural signs (Irwin test),"rats [3]; 1000 mg/kg single oral, all the effects were reversible","tip toe position, ataxic and subsequently a lying recumbent or flattened position"
same,Effect on locomotion (Irwin test),"rats [3]; higher doses (300 and 1000 mg/kg) single oral, with myorelaxant effect and decrease in awareness",more marked and more long lasting
same,Body temperature,"rats [3]; higher doses (300 and 1000 mg/kg), up to four hours",significant decrease in body temperature
same,Time taken to fall asleep and duration of the sleep,rats [4]; highest dose (1000 mg/kg) oral,significant decrease of the time taken to fall asleep and of the duration of the sleep
same,Sleep duration,rats [4]; intermediate dose (300 mg/kg) oral,slight decrease in sleep duration
same,Time taken to fall asleep and duration of the sleep,rats [4]; lowest dose (100 mg/kg) oral,No statistical significant effect
same,Time of occurrence of seizures,rats [5]; 100 and 300 mg/kg oral,increase in the time of occurrence of seizures
same,Proconvulsant effect,"rats [5]; all the doses (100, 300, 1000 mg/kg oral)",no statistical significant proconvulsant effect
same,Reduction of HERG tail current,"HERG tail current; 10^−4 M, highest concentration tested",about 50%
same,Inhibition of HERG tail current,HERG tail current; 10^−6 and 10^−5 M,slight and non dose-dependent decrease
same,Inhibition of HERG tail current,HERG tail current; 10^−7 M,no statistically significant inhibition
same,"Inhibition of HERG tail current, highest value reached","HERG tail current; all concentrations, 70% is the threshold for an active compound",< 70%
same,Action potential duration of repolarisation,[6]; 10^−4 M,significant decrease in action potential duration of repolarisation
same,Action potential parameters,"[6]; 10^−7, 10^−6 and 10^−5 M, normal or low stimulation rates",no statistically significant effect
same,Early or delayed after-depolarisation,[6]; all the concentrations tested,neither early nor delayed after-depolarisation were recorded
same,"Blood pressure, heart rate and electrocardiogram tracing",conscious dogs; 100 mg/kg oral,did not induce relevant changes
same,Presence in plasma,"conscious dogs; 1000 mg/kg oral, 3 hours after the administration",confirmed the presence
same,6-lead electrocardiogram,"conscious dogs; 1000 mg/kg oral, before and 3 hours after dosing",No disturbance in the 6-lead electrocardiogram
same,Vomiting,"conscious dogs; 1000 mg/kg oral, between 0.5 and 17 hours after dosing",All animals vomited
same,"Arterial blood pressure (mean, systolic and diastolic)",conscious dogs; 300 and 1000 mg/kg oral,slight increase in arterial blood pressure
same,PR and PQ interval durations,conscious dogs; 300 and 1000 mg/kg oral,slight decrease in PR and PQ interval durations
same,QT interval duration corrected for heart rate (Sarma's method),conscious dogs; 300 and 1000 mg/kg oral,slight increase in QT interval duration
same,"Electrocardiogram (lead II), T wave morphology",conscious dogs; all the doses tested,No disturbance in the electrocardiogram (lead II)
same,Respiratory parameters,conscious rats; 100 mg/kg single oral,no relevant effect on respiratory parameters
same,"Peak inspiratory and peak expiratory flows, minute volume, airway resistance index","conscious rats; 100, 300 and 1000 mg/kg single oral",No statistically change
same,Respiratory rate and tidal volume,conscious rats; 300 and 1000 mg/kg single oral,tachypnoea associated to a transient reduction in tidal volume
same,LD50,"Acute toxicity in mouse; ip, dose-range 200-1000",~800 mg/kg
same,LD50,"Acute toxicity in mouse; oral, os, dose-range 2000-4000",> 4000 mg/kg
same,LD50,"Acute toxicity in rat; ip, dose-range 200-1000",~800 mg/kg
same,LD50,"Acute toxicity in rat; oral, os, dose-range 2000-4000",> 4000 mg/kg
